“Also recorded” adds a separate entry of the source. Read-outs that look alike come from different tables or passages of the source.
Assays:
[1] = tested on: SW620 colon carcinoma cells; assay: Cell morphology change of SW620 cells (phase contrast microscopy); format: cell-based, human; settings: for Cell morphology change: SW620 cells, 0.5 μM
Procedure: (§1) Chemotherapeutic molecules, such as DNA alkylators, topoisomerase inhibitors or histone deacetylase inhibitors, alter the morphology and growth characteristics of cancer cells in culture. […] Cells were transfected with 25-100 nM siRNA using the Silencer™ siRNA Transfection Kit (Ambion, Inc.). Cell growth and morphology change were evaluated 72 or 96 hr after transfection by counting cells in a hemocytometer, and by visually inspecting cells in a phase contrast microscope.

v-Myb = assay: qRT-PCR of v-Myb expression; format: cell-based
[2] = tested on: SW620 colon carcinoma cells; assay: Growth arrest / cell counts of SW620 cells; format: cell-based, human; settings: for Growth arrest: SW620 cells, based on cell counts, 0.5 μM
Procedure: as §1

[3] = tested on: histone H4c mRNA in SW620 cells; assay: Real-time quantitative RT-PCR of H4c mRNA; format: cell-based, human
Procedure: (§2) Quantitative real-time RT-PCR was performed using QuantiTect™ SYBR® Green RT-PCR (Qiagen) as described. […] Temperature cycling and detection of the SYBR® Green emission was performed with a Cepheid SmartCycler® system. Statistical analysis was performed on three independent quantitative RT-PCR experiments for each RNA sample.

SW620 cells [4] = assay: Nuclear structure, Hoechst staining and fluorescence microscopy; settings: polyamide 0.5 μM for 72 hours or siRNA transfection
SW620 cells [5] = format: cell-based, human; settings: SW620 cells pre-treated, grown without polyamide up to two weeks
Procedure: Soft agar assays were performed in 6-well culture dishes using SeaPlaque low-melting temperature agarose (Cambrex Bio Science Rocklarid, Inc.). The cell growth medium was supplemented with 20% fetal bovine serum. Cells were treated for 5 days with or without polyamide, harvested by trypsin treatment, and counted using a hemocytometer. […] Cells were gently mixed by pipetting and quickly transferred to the culture dish containing a thin layer (0.5 ml) of solidified 0.5% agarose in medium. Cultures were incubated for 1-2 weeks prior to visualization by microscopy.
Equal numbers of untreated and polyamide-treated cells were inoculated into soft agar (without polyamide), and grown for up to two weeks.

[6] = tested on: SW620 colon carcinoma cells
SW620 cells [7] = assay: Affymetrix U133A microarray analysis of genomic transcription; format: cell-based, human; settings: 0.5 μM, 72 hr
Procedure: Total RNA from SW620 cells from four pooled culture wells from triplicate experiments was isolated using a Qiagen RNeasy™ Midi kit according to the manufacturer's instructions. […]. Microarray experiments were performed at the DNA Array Core Facility of The Scripps Research Institute using Affymetrix Genechip® Human Genome U133A chips. Data were analyzed using Affymetrix MicroArray® Suite (MAS 5.0) software. RMA values for probe sets were analyzed using Significance Analysis of Microarrays (SAM) 1.21 software (Stanford University).
The effects of polyamide treatment on genomic transcription were monitored by DNA microarray analysis using Affymetrix high-density U133A arrays, which contain oligonucleotides representing approximately 18,000 human genes. […]. Total RNA was isolated, converted into fluorescent cRNA and hybridized to the oligonucleotide microarrays. […]

[8] = tested on: human histone H4c gene (radiolabeled PCR product); format: biochemical
K562 [9] = assay: Growth inhibition; format: cell-based, human
H4c mRNA in K562 = format: cell-based, human
Procedure: as §2

K562 [10] = assay: G2/M cell cycle arrest by FACS analysis; format: cell-based, human
[11] = SW620, 25-100 nM siRNA, 72 or 96 hr

In the case of `Cc1cc(C)n2c1C=C1C=CC(CCCCC(=O)N[C@@H](CCNC(=O)c3nc(NC(=O)CCNC(=O)c4nc(NC(=O)c5nccn5C)cn4C)cn3C)C(=O)Nc3cc(C(=O)Nc4cc(C(=O)Nc5cc(C(=O)Nc6cc(C(=O)NCCC(=O)NCCCN(C)C)n(C)c6)n(C)c5)n(C)c4)n(C)c3)=[N+]1[B-]2(F)F` [1S-bodipy], the “entry into the nucleus” value (SW620 cell line) is reported as “entered the nucleus”.

“5′-GGGCAUUACAAAACCGGCUtt-3′ [HIST1H4C-1]” was tested, and the “cell morphology change after siRNA transfection” value [1, 11] was “caused a morphological change”, the “effect on v-Myb transcription / expression” value (v-Myb) was “down regulated v-Myb transcription” and the “cell number / growth after siRNA transfection” value [2, 11] was “decreased”. The “reduction in cell number relative to untreated cells” value ([2]; SW620, after 3 days) was 73 (+1-5) %, the Relative cell number ([2]; SW620, siRNA transfection, untreated = 100%) was 37% and the “down regulation of H4c mRNA compared to scrambled sequence siRNA” value ([3]; SW620, quantitative RT-PCR) was about 8.6 fold. The “down regulation of H4c transcription sufficient to cause growth arrest” value ([3]; SW620 cells) was 2 fold and the “effect on size of the cell nucleus” value (SW620 cells [4]) was “caused a similar enlargement of the cell nucleus”.

`CN(C)CCCNC(=O)CCNC(=O)c1cc(NC(=O)c2nc(NC(=O)CCNC(=O)c3cc(NC(=O)c4cc(NC(=O)[C@@H](CCNC(=O)c5cc(NC(=O)c6nc(NC(=O)CCNC(=O)c7cc(NC(=O)c8nccn8C)cn7C)cn6C)cn5C)NC(=O)CCCc5ccc(N(CCCl)CCCl)cc5)cn4C)cn3C)cn2C)cn1C` [2-Chl, ImPy-βImPy-(R-2,4-Daba^Chl)-PyPyβImPy-βDp] was tested, and the Cell morphology change [1] was “no” and the Growth arrest [2] was “no”.

For `CN(C)CCCNC(=O)CCNC(=O)c1cc(NC(=O)c2cc(NC(=O)c3cc(NC(=O)c4cc(NC(=O)[C@@H](CCNC(=O)c5nc(NC(=O)c6nc(NC(=O)c7cc(NC(=O)c8nccn8C)cn7C)cn6C)cn5C)NC(=O)CCCc5ccc(N(CCCl)CCCl)cc5)cn4C)cn3C)cn2C)cn1C` [6-Chl], the Cell morphology change [1] was “abolished the morphological change and growth arrest and no” and the Growth arrest [2] was “abolished the morphological change and growth arrest; also recorded: slight”.

In the case of `O=C(O)CCCc1ccc(N(CCCl)CCCl)cc1` [Chl, chlorambucil, reference compound], the “growth in soft agar” value (SW620 cells [5]) is reported as “formed colonies”, the Cell morphology change [1] is reported as “without effect” and the Growth arrest [2] is reported as “without effect”. For the same compound, the cytotoxicity ([6]; concentrations higher than 0.5 μM) was “cytotoxic at higher concentrations” and the “genes whose transcription was affected” value (SW620 cells [7]) was “a large number of genes”.

For `Cc1cc(C)n2c1C=C1C=CC(CCCCC(=O)N[C@H](CCNC(=O)c3nc(NC(=O)CCNC(=O)c4nc(NC(=O)c5nccn5C)cn4C)cn3C)C(=O)Nc3cc(C(=O)Nc4cc(C(=O)Nc5cc(C(=O)Nc6cc(C(=O)NCCC(=O)NCCCN(C)C)n(C)c6)n(C)c5)n(C)c4)n(C)c3)=[N+]1[B-]2(F)F` [1R-bobipy], the “entry into the nucleus” value (SW620 cell line) was “entered the nucleus”.

In the case of `CN(C)CCCNC(=O)CCNC(=O)c1cc(NC(=O)c2cc(NC(=O)c3cc(NC(=O)c4cc(NC(=O)[C@@H](CCNC(=O)c5cc(NC(=O)c6cc(NC(=O)c7cc(NC(=O)c8nccn8C)cn7C)cn6C)cn5C)NC(=O)CCCc5ccc(N(CCCl)CCCl)cc5)cn4C)cn3C)cn2C)cn1C` [4-Chl], the “alkylation of the H4c PCR product on either strand” value [8] is reported as “fail to significantly alkylate”, the Growth arrest [2] is reported as “cytotoxic” and the cytotoxicity [6] is reported as “highly cytotoxic”.

With `CN(C)CCCNC(=O)CCNC(=O)c1cc(NC(=O)c2cc(NC(=O)c3cc(NC(=O)c4nc(NC(=O)C(CCNC(=O)c5cc(NC(=O)c6cc(NC(=O)c7nc(NC(=O)c8nccn8C)cn7C)cn6C)cn5C)NC(=O)CCCc5ccc(N(CCCl)CCCl)cc5)cn4C)cn3C)cn2C)cn1C` (stereo not drawn) [ImImPyPy-(R-2,4-Daba^Chl)-ImPyPyPy-β-Dp] the “alkylation of the H4c gene in vitro” value ([8]; sites of the form 5′-WGGWCN-3′) was “alkylate multiple sites in the H4c gene”, the Growth arrest (K562 [9]) was “causes growth and cell cycle arrest” and the “effect on H4c gene transcription” value (H4c mRNA in K562) was “down regulates H4c gene transcription”. For the same compound, the cell cycle arrest (K562 [10]) was “causes growth and cell cycle arrest”.

With `CN(C)CCCNC(=O)CCNC(=O)c1cc(NC(=O)c2cc(NC(=O)c3cc(NC(=O)c4cc(NC(=O)[C@@H](CCNC(=O)c5cc(NC(=O)c6nc(NC(=O)c7cc(NC(=O)c8nccn8C)cn7C)cn6C)cn5C)NC(=O)CCCc5ccc(N(CCCl)CCCl)cc5)cn4C)cn3C)cn2C)cn1C` [5-Chl] the “alkylation of the H4c PCR product on either strand” value [8] was “fail to significantly alkylate”, the Growth arrest [2] was “cytotoxic” and the cytotoxicity [6] was “highly cytotoxic”.
